One assay addresses SIK1 (Homo sapiens, UniProt P57059). As to the kind of experiment: biochemical. More on the design: Kinase selectivity panel, IC50 of AC484 (Supplementary Table 1). The method, then: (§1) Wide-range phosphatase, kinase and preclinical safety pharmacology off-target activity screens were conducted at Eurofins (Extended Data Table 5 and Supplementary Tables 1 and 2). A small phosphatase panel was developed at AbbVie to assess IC50 values on select phosphatases. The following enzymes used in the phosphatase selectivity panel were purchased from Eurofins: PTPN1 (PTP1B; 14–621), PTPN2 (TC-PTP; 14–646), PTPN9 (14–592), SHP1 (14–591) and SHP2 (14–622). The catalytic activity of the phosphatase was monitored using the small-molecule substrate DiFMUP (ThermoFisher) in a fluorescence assay format. In brief, the phosphatase reactions were performed at room temperature in the following assay buffer: 50 mM HEPES, pH 7.2, 100 mM NaCl, 1 mM EDTA, 0.005% Tween-20 and 5 mM TCEP. Each phosphatase was incubated with increasing concentrations of AC484 for 5 min, after which the substrate DiFMUP was added and incubated at 25 °C for 30 min. The final concentration of the enzyme and substrate was maintained at 0.5 nM and 5 μM, respectively, in all the assays. The reaction was then quenched by the addition of a 100 μM solution of bpV(Phen) (Enzo Life Sciences). The fluorescence signal was monitored using an Envision microplate reader (Perkin-Elmer) using excitation and emission wavelengths of 340 nm and 450 nm, respectively. The dose–response curves for the inhibitors were analysed using normalized IC50 regression curve fitting with control-based normalization. Supplementary file 41586_2023_6575_MOESM3_ESM.xlsx: Supplementary Table 1 AC484 kinase selectivity screen.

A further assay has as its target STK33 (Homo sapiens, UniProt Q9BYT3). In words: biochemical. Also on record: Kinase selectivity panel, IC50 of AC484 (Supplementary Table 1). As to the method: as §1
A further assay concerns the target Gsk3b (Homo sapiens, UniProt P49841). As to the kind of experiment: biochemical. More on the design: Kinase selectivity panel, IC50 of AC484 (Supplementary Table 1). The method, then:
as §1

The next assay deals with Plk4 (Homo sapiens, UniProt O00444). In words: biochemical. Also on record: Kinase selectivity panel, IC50 of AC484 (Supplementary Table 1). As to the method: as §1
The next assay addresses T1, PTPN2 (Homo sapiens, UniProt P17706).
T1 construct: Met1–Asn314, C-terminal 8× histidine tag (crystal); full-length recombinant (IC50)
As to the kind of experiment: X-ray crystal structure (soak); mobility shift enzyme assay IC50. It is filed as biochemical. The text has this:
X-ray crystal structure (soak); mobility shift enzyme assay IC50 on PTPN2 | The crystal structure of the PTPN2 protein with AC484 confirmed the formation of several crucial interactions in the active site

pIC50: −log10 of the molar value.

Plk4, sequence (O00444 whole entry): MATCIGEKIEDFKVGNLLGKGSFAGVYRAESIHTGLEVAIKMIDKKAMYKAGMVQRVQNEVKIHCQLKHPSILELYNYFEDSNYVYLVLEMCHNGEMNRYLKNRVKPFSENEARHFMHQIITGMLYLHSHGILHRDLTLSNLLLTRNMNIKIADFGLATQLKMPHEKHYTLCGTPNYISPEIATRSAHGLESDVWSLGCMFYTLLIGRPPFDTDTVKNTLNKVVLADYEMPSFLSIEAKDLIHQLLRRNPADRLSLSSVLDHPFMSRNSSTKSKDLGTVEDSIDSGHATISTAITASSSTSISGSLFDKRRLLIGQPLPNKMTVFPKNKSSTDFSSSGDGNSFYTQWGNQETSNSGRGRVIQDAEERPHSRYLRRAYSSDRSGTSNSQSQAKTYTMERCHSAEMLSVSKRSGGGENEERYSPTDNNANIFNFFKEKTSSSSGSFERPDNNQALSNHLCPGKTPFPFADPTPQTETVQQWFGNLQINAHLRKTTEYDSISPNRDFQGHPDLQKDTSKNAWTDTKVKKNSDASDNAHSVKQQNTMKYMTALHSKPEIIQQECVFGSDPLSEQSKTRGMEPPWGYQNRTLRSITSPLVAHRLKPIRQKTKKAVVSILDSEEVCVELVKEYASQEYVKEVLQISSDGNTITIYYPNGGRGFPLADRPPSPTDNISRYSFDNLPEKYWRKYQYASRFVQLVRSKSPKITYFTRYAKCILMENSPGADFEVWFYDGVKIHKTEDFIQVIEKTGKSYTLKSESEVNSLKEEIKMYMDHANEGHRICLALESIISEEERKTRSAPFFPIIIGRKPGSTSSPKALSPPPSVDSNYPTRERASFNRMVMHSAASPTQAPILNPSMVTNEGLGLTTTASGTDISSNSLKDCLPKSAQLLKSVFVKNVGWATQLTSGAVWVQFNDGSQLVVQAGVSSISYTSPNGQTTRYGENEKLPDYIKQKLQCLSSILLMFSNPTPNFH
STK33, sequence (Q9BYT3 whole entry): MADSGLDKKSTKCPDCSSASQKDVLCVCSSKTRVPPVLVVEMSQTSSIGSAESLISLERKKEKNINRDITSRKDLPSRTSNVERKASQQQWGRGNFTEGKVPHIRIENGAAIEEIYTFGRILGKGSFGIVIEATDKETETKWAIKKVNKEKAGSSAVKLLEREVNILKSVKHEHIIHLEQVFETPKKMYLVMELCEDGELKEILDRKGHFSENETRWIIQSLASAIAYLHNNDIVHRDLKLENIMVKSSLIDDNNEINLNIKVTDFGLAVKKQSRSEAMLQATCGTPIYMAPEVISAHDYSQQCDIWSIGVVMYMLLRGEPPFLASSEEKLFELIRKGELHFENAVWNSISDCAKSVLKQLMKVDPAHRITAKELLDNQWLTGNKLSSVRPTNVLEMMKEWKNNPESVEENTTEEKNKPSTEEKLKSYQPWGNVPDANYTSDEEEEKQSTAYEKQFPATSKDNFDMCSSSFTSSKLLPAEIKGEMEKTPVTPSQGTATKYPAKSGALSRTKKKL
Gsk3b, sequence (P49841 whole entry): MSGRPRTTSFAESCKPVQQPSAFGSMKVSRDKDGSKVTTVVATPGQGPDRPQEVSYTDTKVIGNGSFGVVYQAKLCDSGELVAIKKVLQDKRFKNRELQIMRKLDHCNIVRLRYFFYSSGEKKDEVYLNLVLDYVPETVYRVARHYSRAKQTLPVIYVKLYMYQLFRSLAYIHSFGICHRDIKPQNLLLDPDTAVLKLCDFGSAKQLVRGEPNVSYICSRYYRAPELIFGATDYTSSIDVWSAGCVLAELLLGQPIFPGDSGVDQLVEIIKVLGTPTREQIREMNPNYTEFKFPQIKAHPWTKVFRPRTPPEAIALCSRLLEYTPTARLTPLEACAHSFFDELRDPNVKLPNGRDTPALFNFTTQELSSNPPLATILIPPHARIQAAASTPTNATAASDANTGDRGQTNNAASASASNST
T1 sequence (P17706 1-314): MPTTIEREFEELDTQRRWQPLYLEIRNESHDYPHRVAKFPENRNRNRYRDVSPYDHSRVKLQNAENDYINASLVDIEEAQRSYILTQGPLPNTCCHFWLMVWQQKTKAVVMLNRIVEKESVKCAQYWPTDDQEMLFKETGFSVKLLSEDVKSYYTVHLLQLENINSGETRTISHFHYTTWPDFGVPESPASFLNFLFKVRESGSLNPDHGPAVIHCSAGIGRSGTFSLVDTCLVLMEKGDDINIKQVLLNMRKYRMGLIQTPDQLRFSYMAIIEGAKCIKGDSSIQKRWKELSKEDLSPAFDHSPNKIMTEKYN
SIK1, sequence (P57059 whole entry): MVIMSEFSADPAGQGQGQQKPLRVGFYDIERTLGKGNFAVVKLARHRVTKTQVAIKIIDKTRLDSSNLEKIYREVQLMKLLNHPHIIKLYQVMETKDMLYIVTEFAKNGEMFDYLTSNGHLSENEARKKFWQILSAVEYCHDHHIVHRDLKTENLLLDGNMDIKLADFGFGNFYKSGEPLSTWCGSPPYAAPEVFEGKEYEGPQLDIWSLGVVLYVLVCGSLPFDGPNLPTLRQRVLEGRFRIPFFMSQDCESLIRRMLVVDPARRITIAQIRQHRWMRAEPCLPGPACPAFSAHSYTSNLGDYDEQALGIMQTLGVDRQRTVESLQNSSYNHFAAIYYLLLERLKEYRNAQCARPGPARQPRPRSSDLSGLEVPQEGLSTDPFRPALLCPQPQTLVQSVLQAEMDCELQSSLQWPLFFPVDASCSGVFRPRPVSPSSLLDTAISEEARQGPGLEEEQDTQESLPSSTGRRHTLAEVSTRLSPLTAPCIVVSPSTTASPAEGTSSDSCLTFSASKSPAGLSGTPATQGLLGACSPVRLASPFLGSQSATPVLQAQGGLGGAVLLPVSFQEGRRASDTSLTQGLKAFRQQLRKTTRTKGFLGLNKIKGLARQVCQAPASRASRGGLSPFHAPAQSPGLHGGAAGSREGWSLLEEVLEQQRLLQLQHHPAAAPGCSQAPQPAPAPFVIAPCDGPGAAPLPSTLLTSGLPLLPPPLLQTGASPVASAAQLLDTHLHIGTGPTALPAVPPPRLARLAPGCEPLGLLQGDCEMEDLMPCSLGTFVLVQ

For `CC(C)CCN[C@@H]1CCc2cc(O)c(N3CC(=O)NS3(=O)=O)c(F)c2C1` [AC484, ABBV-CLS-484], the pIC50 against SIK1 is less than 5.00; on STK33 it was less than 5.00; on Gsk3b, less than 5.00; against Plk4, less than 5.00; at PTPN2 it was 8.74.
